According to US10670605B2, “Cysteine reactive probes and uses thereof” (The Scripps Research Institute, priority 2015, dated 2020):

Assays:
Experiment in all cases: Competitive isoTOP-ABPP, cell lysates
Assay type in all cases: binding
[1] = target: T1, DDX59 C414 (Q5T1V6) (Homo sapiens, UniProt Q5T1V6); conditions: 500 μm in-vitro ramos_231
T1 sequence (Q5T1V6 1-619): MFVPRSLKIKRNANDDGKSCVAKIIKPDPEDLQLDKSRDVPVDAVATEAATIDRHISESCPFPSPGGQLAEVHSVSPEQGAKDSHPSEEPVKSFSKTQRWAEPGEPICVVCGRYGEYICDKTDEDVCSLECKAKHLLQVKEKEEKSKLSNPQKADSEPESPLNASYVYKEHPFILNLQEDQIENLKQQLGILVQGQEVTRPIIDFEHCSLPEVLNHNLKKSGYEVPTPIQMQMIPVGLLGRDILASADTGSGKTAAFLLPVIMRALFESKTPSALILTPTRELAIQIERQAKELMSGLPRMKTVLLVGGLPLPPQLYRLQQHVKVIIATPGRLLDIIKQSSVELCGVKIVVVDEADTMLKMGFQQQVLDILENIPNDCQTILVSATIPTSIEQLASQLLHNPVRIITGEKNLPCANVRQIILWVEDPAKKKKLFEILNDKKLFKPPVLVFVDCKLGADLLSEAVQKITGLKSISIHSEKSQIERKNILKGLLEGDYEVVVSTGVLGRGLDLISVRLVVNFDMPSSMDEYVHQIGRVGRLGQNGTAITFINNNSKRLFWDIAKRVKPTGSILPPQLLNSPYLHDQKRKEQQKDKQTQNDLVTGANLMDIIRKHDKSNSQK

[2] = target: RRAGC C358 (Q9HB90) (Homo sapiens, UniProt Q9HB90); conditions: 500 μm in-vitro ramos_231
[3] = target: T2, USP48 C39 (Q86UV5) (Homo sapiens, UniProt Q86UV5)
T2 sequence (Q86UV5 1-1035): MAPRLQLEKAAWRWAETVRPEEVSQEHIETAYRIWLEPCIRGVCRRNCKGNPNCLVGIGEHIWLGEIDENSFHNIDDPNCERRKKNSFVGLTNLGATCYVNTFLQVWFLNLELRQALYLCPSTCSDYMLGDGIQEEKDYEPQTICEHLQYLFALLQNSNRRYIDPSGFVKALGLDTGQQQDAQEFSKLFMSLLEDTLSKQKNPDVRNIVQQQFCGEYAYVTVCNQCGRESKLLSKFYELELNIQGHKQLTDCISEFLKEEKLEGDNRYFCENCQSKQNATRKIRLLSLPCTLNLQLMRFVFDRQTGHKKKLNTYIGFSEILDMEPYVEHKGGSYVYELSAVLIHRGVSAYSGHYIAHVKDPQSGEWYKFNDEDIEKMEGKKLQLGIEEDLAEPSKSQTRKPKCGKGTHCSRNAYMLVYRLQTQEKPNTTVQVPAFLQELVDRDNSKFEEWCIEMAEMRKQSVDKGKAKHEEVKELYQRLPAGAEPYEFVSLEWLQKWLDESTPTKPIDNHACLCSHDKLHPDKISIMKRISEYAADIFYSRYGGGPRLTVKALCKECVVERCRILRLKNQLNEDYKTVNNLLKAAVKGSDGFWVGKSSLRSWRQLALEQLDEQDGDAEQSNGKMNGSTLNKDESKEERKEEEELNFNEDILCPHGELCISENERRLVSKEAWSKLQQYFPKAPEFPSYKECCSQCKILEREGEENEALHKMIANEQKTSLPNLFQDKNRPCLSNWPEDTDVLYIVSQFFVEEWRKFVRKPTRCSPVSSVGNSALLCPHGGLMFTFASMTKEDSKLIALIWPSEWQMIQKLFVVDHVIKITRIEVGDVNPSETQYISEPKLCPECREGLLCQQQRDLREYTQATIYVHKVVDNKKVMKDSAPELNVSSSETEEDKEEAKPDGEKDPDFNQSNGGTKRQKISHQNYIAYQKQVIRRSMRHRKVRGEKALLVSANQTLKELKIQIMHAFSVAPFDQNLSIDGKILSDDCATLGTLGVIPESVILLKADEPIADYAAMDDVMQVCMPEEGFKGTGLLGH

[4] = target: LRBA C2675 (P50851) (Homo sapiens, UniProt P50851)
[5] = target: MLTK C22 (Q9NYL2) (Homo sapiens, UniProt Q9NYL2); conditions: 500 μm in-vitro ramos_231
MLTK C22 (Q9NYL2), sequence (Q9NYL2 whole entry): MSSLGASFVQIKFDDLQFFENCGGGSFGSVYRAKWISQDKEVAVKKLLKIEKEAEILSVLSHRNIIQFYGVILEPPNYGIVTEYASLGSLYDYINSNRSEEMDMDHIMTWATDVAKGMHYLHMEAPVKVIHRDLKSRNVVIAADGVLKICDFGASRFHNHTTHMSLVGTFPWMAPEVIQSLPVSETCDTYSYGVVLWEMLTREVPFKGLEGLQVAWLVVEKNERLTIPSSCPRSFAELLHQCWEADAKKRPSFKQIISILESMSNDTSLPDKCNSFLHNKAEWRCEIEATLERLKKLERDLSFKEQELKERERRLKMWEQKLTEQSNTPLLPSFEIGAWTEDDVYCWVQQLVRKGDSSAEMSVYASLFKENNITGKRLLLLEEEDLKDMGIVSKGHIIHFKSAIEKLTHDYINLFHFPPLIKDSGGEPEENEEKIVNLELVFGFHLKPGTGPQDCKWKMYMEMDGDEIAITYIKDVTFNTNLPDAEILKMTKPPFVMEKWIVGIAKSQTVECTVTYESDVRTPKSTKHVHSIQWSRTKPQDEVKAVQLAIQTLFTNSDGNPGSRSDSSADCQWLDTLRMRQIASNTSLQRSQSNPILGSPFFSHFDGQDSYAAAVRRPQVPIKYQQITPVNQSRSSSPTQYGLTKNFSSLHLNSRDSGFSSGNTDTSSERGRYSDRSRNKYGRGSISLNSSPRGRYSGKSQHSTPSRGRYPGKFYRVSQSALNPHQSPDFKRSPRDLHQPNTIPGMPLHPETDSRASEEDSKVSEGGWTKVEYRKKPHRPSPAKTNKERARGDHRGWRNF

LRBA C2675 (P50851), sequence (P50851 whole entry): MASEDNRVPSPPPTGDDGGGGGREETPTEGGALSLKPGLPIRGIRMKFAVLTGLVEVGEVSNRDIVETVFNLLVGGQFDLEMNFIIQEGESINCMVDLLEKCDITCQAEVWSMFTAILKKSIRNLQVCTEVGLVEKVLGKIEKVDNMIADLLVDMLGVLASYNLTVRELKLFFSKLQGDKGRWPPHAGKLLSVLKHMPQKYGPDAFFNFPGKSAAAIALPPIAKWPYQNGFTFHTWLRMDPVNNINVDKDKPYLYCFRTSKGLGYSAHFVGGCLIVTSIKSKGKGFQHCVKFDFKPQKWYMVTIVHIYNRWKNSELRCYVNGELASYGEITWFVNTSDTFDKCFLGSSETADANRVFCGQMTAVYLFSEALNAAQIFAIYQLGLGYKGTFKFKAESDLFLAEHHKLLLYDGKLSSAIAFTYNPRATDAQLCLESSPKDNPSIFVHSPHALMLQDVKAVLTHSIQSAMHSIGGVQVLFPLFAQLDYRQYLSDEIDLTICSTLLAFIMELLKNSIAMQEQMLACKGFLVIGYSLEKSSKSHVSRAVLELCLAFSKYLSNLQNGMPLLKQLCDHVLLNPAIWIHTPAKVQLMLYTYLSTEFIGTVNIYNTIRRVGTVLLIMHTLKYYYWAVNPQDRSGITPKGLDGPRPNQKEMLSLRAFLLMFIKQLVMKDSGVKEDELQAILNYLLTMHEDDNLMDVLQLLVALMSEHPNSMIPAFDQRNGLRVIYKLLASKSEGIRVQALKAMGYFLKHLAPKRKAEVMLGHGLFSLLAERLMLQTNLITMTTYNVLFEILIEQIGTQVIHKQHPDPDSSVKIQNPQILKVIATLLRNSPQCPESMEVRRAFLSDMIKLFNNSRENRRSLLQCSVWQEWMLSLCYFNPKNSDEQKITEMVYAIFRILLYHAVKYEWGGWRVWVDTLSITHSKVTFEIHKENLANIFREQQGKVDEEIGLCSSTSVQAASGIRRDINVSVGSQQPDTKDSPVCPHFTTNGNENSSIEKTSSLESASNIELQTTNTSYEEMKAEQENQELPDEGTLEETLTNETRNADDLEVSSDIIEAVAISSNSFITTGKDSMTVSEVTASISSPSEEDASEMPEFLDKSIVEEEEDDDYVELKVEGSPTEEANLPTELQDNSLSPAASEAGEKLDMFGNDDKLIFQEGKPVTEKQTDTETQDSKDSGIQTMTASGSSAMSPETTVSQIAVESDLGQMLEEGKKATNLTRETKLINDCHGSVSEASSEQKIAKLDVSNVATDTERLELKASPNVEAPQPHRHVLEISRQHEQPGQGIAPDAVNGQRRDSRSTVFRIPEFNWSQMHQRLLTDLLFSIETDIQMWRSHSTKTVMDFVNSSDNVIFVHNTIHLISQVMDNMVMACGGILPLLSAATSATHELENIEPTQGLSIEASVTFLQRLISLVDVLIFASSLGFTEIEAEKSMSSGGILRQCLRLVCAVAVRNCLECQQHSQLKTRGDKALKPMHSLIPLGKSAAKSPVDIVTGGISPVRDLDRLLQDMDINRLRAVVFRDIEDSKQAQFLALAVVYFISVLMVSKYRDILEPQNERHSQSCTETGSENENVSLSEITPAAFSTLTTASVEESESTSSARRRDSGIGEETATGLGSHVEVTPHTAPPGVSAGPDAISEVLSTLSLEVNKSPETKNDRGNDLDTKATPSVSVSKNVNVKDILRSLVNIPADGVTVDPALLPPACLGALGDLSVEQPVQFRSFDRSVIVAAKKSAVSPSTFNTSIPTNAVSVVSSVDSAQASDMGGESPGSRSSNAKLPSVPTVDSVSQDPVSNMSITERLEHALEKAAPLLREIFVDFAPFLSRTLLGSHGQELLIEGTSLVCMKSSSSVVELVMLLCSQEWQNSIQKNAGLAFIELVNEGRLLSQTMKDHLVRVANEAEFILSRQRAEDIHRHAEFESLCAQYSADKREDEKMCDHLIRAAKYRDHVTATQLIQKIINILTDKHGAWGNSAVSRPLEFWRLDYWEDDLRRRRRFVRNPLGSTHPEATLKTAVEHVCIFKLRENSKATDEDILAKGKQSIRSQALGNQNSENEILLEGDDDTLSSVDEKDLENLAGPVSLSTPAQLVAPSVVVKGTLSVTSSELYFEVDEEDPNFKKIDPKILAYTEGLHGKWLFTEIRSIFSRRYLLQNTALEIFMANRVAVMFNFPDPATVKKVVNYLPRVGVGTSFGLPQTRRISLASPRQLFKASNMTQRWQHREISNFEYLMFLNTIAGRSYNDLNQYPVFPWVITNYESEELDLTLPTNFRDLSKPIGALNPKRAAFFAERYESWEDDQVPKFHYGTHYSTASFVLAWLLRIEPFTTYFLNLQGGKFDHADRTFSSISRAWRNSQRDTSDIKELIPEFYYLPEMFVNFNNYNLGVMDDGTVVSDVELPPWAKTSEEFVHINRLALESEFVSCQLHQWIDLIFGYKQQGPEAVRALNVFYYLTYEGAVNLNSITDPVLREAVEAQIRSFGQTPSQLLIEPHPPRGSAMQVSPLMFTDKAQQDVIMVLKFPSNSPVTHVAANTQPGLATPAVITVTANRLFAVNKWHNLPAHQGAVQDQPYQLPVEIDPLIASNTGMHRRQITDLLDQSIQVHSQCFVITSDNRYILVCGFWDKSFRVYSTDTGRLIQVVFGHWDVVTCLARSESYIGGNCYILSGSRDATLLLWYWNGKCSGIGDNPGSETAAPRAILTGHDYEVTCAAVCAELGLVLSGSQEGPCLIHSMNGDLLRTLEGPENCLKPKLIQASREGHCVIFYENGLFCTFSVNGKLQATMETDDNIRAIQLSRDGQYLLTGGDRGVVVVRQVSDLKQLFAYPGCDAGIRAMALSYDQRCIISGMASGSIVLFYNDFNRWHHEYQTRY
RRAGC C358 (Q9HB90), sequence (Q9HB90 2-399 limits assumed): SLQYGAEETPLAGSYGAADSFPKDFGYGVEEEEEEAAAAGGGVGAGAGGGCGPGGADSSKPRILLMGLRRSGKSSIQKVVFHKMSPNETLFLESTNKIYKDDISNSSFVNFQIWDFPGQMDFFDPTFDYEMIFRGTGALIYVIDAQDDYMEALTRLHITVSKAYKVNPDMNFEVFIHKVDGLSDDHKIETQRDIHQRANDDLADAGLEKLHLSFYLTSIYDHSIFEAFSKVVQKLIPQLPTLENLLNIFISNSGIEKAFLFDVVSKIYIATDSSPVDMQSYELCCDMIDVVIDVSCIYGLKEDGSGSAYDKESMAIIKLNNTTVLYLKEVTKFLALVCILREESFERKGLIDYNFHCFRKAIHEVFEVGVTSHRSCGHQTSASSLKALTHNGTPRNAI
RRAGC C358 (Q9HB90), sequence (Q7L523 whole entry partner): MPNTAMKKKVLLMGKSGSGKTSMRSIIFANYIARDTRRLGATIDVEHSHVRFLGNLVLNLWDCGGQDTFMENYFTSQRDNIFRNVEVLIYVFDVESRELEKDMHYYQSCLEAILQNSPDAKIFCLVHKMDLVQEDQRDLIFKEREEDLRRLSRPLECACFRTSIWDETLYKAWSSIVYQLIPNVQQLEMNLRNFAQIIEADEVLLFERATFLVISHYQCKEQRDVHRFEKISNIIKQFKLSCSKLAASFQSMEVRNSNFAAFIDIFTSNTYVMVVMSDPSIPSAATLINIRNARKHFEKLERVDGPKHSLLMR

isoTOP-ABPP ratio (reactivity profile), Q5T1V6_C414 [1]: 1.2
isoTOP-ABPP ratio (reactivity profile), Q9HB90_C358 [2]: 1.2
isoTOP-ABPP ratio (reactivity profile), Q86UV5_C39 ([3]; 500 μm in-vitro ramos): 1.2
isoTOP-ABPP ratio (reactivity profile), Q86UV5_C39 ([3]; 500 μm in-vitro ramos_231): 20.0
isoTOP-ABPP ratio (reactivity profile), P50851_C2675 ([4]; 500 μm in-vitro ramos): 1.5
isoTOP-ABPP ratio (reactivity profile), P50851_C2675 ([4]; 500 μm in-vitro ramos_231): 0.9
isoTOP-ABPP ratio (reactivity profile), Q9NYL2_C22 [5]: 2.0
Compound: O=C(CCl)NC12CC3CC(CC(C3)C1)C2 [compound 21]
